Results taken from publication PMC8445441, “Elucidating the mechanism by which synthetic helper peptides sensitize Pseudomonas aeruginosa to multiple antibiotics” (PLoS Pathogens, 2021).
Values joined by “and” are separate entries in the source; they are usually repeats but may differ in a detail not shown here. Equal values may be shown once. Read-outs that look alike come from different tables or passages of the source.

Columns and labels:
[1] = tested on: P. aeruginosa HM-214; conditions: strain HM-214; antibiotic + D-11 (MICb/MICbc 128/4)
Procedure, shortened: (§1)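 CLSI broth dilution; MHB; ~1 × 10^6 CFU/mL suspension mixed equal volume with drug; 37 °C for 18 h; visual read; triplicate. Broth sometimes supplemented with PG, PE, PC, CL, LPS, MgCl2, CaCl2 or PAβN.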

[2] = tested on: clinical P. aeruginosa isolates; experiment: microbe, parasite or virus in culture; conditions: Pseudomonas aeruginosa, 18 h, antibiotic alone
Procedure, shortened: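 MIC is the lowest drug concentration showing no visible growth after 18 h at 37 °C. Two-fold dilutions in MHB were combined with an equal volume of bacterial suspension (about 1 × 10^6 CFU/mL), following CLSI broth microdilution, in triplicate.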

[3] = tested on: P. aeruginosa AUMC-Pa-3; experiment: microbe, parasite or virus in culture; conditions: strain AUMC-Pa-3
Procedure, shortened: as §1

[4] = tested on: P. aeruginosa AUMC-Pa-5; experiment: microbe, parasite or virus in culture; conditions: strain AUMC-Pa-5
Procedure, shortened: as §1

[5] = tested on: P. aeruginosa AUMC-Pa-6; experiment: microbe, parasite or virus in culture; conditions: strain AUMC-Pa-6
Procedure, shortened: as §1

[6] = tested on: P. aeruginosa PAO1; experiment: microbe, parasite or virus in culture; conditions: for MIC: Pseudomonas aeruginosa
Procedure, shortened: as §1

[7] = tested on: P. aeruginosa AUMC-Pa-4; experiment: microbe, parasite or virus in culture; conditions: strain AUMC-Pa-4
Procedure, shortened: as §1

[8] = tested on: P. aeruginosa AUMC-Pa-2; conditions: strain AUMC-Pa-2; antibiotic + D-11 (MICb/MICbc 64/4)
Procedure, shortened: as §1

[9] = tested on: P. aeruginosa AUMC-Pa-1; conditions: strain AUMC-Pa-1; antibiotic + D-11 (MICb/MICbc 128/4)
Procedure, shortened: as §1

[10] = tested on: P. aeruginosa PAK; experiment: microbe, parasite or virus in culture; set-up: MICa: MIC of the antibiotic / MICac: MIC of the antibiotic in the combination: unit not given beside the values; conditions: strain PAK
Procedure, shortened: as §1

[11] = tested on: P. aeruginosa NR-31041; experiment: microbe, parasite or virus in culture; set-up: MICa: MIC of the antibiotic / MICac: MIC of the antibiotic in the combination: unit not given beside the values; conditions: strain NR-31041
Procedure, shortened: as §1

[12] = tested on: P. aeruginosa PA14; experiment: microbe, parasite or virus in culture; set-up: MICa: MIC of the antibiotic / MICac: MIC of the antibiotic in the combination: unit not given beside the values; conditions: strain PA14
Procedure, shortened: as §1

[13] = tested on: P. aeruginosa ATCC27853; experiment: microbe, parasite or virus in culture; set-up: MICa: MIC of the antibiotic / MICac: MIC of the antibiotic in the combination: unit not given beside the values; conditions: strain ATCC27853
Procedure, shortened: as §1

[14] = tested on: P. aeruginosa NR-31040; experiment: microbe, parasite or virus in culture; set-up: MICa: MIC of the antibiotic / MICac: MIC of the antibiotic in the combination: unit not given beside the values; conditions: strain NR-31040
Procedure, shortened: as §1

[15] = antibiotic + D-11 (MICb/MICbc 128/4)
[16] = antibiotic alone, unit not given
[17] = with D-11 at MICbc 4, unit not given
[18] = antibiotic + D-11 (MICb/MICbc 64/4)

- MIC ([2]; read-out: Antibiotic sensibility (MIC) of clinical P. aeruginosa isolate AUMC-Pa-1, strain AUMC-Pa-1): 128 µM
- MIC ([2]; read-out: Antibiotic sensibility (MIC) of clinical P. aeruginosa isolate AUMC-Pa-2, strain AUMC-Pa-2): 128 µM
- MIC ([2]; read-out: Antibiotic sensibility (MIC) of clinical P. aeruginosa isolate AUMC-Pa-3, strain AUMC-Pa-3): 128 µM
- MIC ([2]; read-out: Antibiotic sensibility (MIC) of clinical P. aeruginosa isolate AUMC-Pa-4, strain AUMC-Pa-4): 128 µM
- MIC ([2]; read-out: Antibiotic sensibility (MIC) of clinical P. aeruginosa isolate AUMC-Pa-5, strain AUMC-Pa-5): 128 µM
- MIC ([2]; read-out: Antibiotic sensibility (MIC) of clinical P. aeruginosa isolate AUMC-Pa-6, strain AUMC-Pa-6): 128 µM
- MIC ([2]; read-out: Antibiotic sensibility (MIC) of clinical P. aeruginosa isolate HM-214, strain HM-214): 128 µM
- MIC ([2]; read-out: Antibiotic sensibility (MIC) of clinical P. aeruginosa isolate NR-31040, strain NR-31040): 128 µM
- MIC ([2]; read-out: Antibiotic sensibility (MIC) of clinical P. aeruginosa isolate NR-31041, strain NR-31041): 128 µM
- MICa: MIC of the antibiotic [3, 16]: 128
- MICac: MIC of the antibiotic in the combination [3, 17]: 8
- MICa: MIC of the antibiotic [4, 16]: 128
- MICac: MIC of the antibiotic in the combination [4, 17]: 32
- MICa: MIC of the antibiotic [5, 16]: 128
- MICac: MIC of the antibiotic in the combination [5, 17]: 32
- MIC ([6]; PAO1, read-out: MIC for azithromycin, azithromycin alone, PAO1): 128 µM
- MIC ([6]; PAO1, read-out: MIC of AZM, initial bacterial density 10^3 CFU/mL): 64 µM
- MIC ([6]; PAO1, read-out: MIC of AZM, initial bacterial density 10^4 CFU/mL): 64 µM
- MIC ([6]; PAO1, read-out: MIC of AZM, initial bacterial density 10^5 CFU/mL): 128 µM
- MIC ([6]; PAO1, read-out: MIC of AZM, initial bacterial density 10^6 CFU/mL): 128 µM
- MICa: the MIC of antibiotics ([6]; S1 Table, macrolide alone, PAO1): 128 µM
- MICa: the MIC of azithromycin ([6]; azithromycin alone, PAO1, broth microdilution in MHB, 18 h, 37 °C, triplicate): 128/128 μM and 128 μM
- MICa: MIC of the antibiotic [7, 16]: 128
- MICac: MIC of the antibiotic in the combination [7, 17]: 32
- MICa: MIC of the antibiotic [10, 16]: 128
- MICac: MIC of the antibiotic in the combination [10, 17]: 16
- MICa: MIC of the antibiotic [11, 16]: 128
- MICac: MIC of the antibiotic in the combination [11, 17]: 16
- MICa: MIC of the antibiotic [12, 16]: 128
- MICac: MIC of the antibiotic in the combination [12, 17]: 32
- MICa: MIC of the antibiotic [13, 16]: 128
- MICac: MIC of the antibiotic in the combination [13, 17]: 4
- MICa: MIC of the antibiotic [14, 16]: 128
- MICac: MIC of the antibiotic in the combination [14, 17]: 32
Structure (SMILES): CC[C@H]1OC(=O)[C@H](C)[C@@H](O[C@H]2C[C@@](C)(OC)[C@@H](O)[C@H](C)O2)[C@H](C)[C@@H](O[C@@H]2O[C@H](C)C[C@H](N(C)C)[C@H]2O)[C@](C)(O)C[C@@H](C)CN(C)[C@H](C)[C@@H](O)[C@]1(C)O [Azithromycin]
- FICI [1]: 0.281
- FICI [3, 15]: 0.094
- FICI [4, 18]: 0.313
- FICI [5, 18]: 0.313
- FICI [7, 15]: 0.281
- FICI [8]: 0.313
- FICI [9]: 0.094
- FICI [10, 18]: 0.188
- FICI [11, 18]: 0.188
- FICI [12, 15]: 0.281
- FICI ([13]; antibiotic + D-11 (MICb/MICbc 32/4)): 0.156
- FICI [14, 15]: 0.281
